Key:
[1] = test system: WNV strain OK02; test: Safety of MB-treated WNV in immunocompetent mice (i.p. injection, survival); format: in vivo, BalbC/j mice; settings: virus treated with MB+light, doses of 10^3 and 10^4 pfu per animal
[2] = test system: WNV; test: MB photoinactivation of WNV in tissue culture (strain not stated); format: cell-based, West Nile Virus
Procedure: (§1) MB inactivation of West Nile Virus. 1 ml aliquots of WNV at a concentration of 10^7 pfu were mixed with MB (SIGMA INC.) to achieve the desired final concentration of MB in the reaction mixture. Mixtures were incubated for 20 minutes in the dark at room temperature and then subsequently for 10 minutes at 10 cm distance from a 40 watt fluorescent white culture hood light at room temperature. Samples were then diluted to the desired concentration of WNV for plaque assay. Inactivated virus was prepared fresh for each assay and never kept for longer than 2 hours at 4° C. before use. It is contemplated that other RNA viruses as described herein can be similarly treated for vaccine formation.
Plaque Assays. Five-fold serial dilutions of WNV strains either mock-treated or treated with MB were placed onto Vero cell monolayers cultured in either 6-well plates or T25 culture flasks (GREINER INC.). Virus aliquots were allowed to attach to the cells for 1 hour at normal cell culture conditions. After one hour the virus was aspirated from the cells. The monolayers were washed twice with phosphate-buffer saline (PBS) and overlayed with 2 ml or 5 ml (6-well or T25, respectively) of 1% methylcellulose (SIGMA INC.) medium supplemented with 2% calf serum. […] The monolayers were subsequently stained with 0.5% Giemsa stain (SIGMA INC.) and plaques counted using a MZ12 dissecting microscope (LEICA INC., Germany).

[3] = test system: WNV; test: Safety of MB-treated WNV in immunodeficient mice (i.p. injection, survival); format: in vivo, C.B. 17-SCID mice; settings: 20 μM MB; conclusion from BalbC/j and SCID mice
[4] = cited from earlier work
[5] = test system: OK03 strain of WNV; test: MB + light inactivation of WNV, plaque assay on Vero cells; format: cell-based, West Nile Virus; settings: MB above 2 μM and light; FIG. 2 panel B; stated as 'held true' for this strain
Procedure: as §1
(§2) Plaque Assays. Five-fold serial dilutions of WNV strains either mock-treated or treated with MB were placed onto Vero cell monolayers cultured in either 6-well plates or T25 culture flasks (GREINER INC.). Virus aliquots were allowed to attach to the cells for 1 hour at normal cell culture conditions. After one hour the virus was aspirated from the cells. The monolayers were washed twice with phosphate-buffer saline (PBS) and overlayed with 2 ml or 5 ml (6-well or T25, respectively) of 1% methylcellulose (SIGMA INC.) medium supplemented with 2% calf serum. Cells were incubated for 5 days. Afterwards the methylcellulose was removed, the monolayers were washed once with PBS and fixed with 100% ice-cold methanol for 5 minutes. The monolayers were subsequently stained with 0.5% Giemsa stain (SIGMA INC.) and plaques counted using a MZ12 dissecting microscope (LEICA INC., Germany).
(§3) As a member of the Flaviviridae family of viruses, WNV utilizes a RNA dependent RNA polymerase for replication. This process is relatively error prone and can lead to the creation of multiple strains. To test the ability of MB to inactivate multiple WNV strains, MB was tested against multiple strains of WNV, including OK02, OK03 and NY-99 (the 1999 prototype virus NY-99 and the more recent Oklahoma isolates from 2002 and 2003). 5×10^3 pfu of OK03 WNV was incubated with 2 μM MB and light. […]

[6] = test system: OK02 strain of WNV; test: as above; format: cell-based, West Nile Virus; settings: MB above 2 μM and light; FIG. 2 panel A
Procedure: as §1, §2, §3

[7] = test system: NY-99 strain of WNV; test: as above; format: cell-based, West Nile Virus; settings: MB above 2 μM and light; data not shown; stated as 'held true' for this strain
Procedure: as §1, §2, §3

CN(C)c1ccc2nc3ccc(N(C)C)cc3[s+]c2c1.[Cl-] [MB, 3,7-Bis(dimethylamino)phenothiazin-5-ium chloride]
WNV-associated morbidity and mortality [1]: completely block-associated morbidity and mortality
reduction of virus titer ([2]; 20 μM MB + light): 10^7 pfu
IC50 ([2]; West Nile virus, MB + light, tissue culture, read-out: IC50 of MB+light inactivation of WNV): 100 nM
effect on WNV-associated morbidity and mortality in vivo [3]: can stop WNV-associated morbidity and mortality
oral absorption ([4]; DiSanto and Wagner 1972): absorbed orally
concentration in blood ([4]; oral 100 mg/kg twice daily (Naylor et al., 1986)): ~50 µM
half-life ([4]; oral (DiSanto and Wagner 1972)): about 10 h
side effects on long-term oral use ([4]; oral, up to 19 months at 100 mg/kg twice daily (Naylor et al., 1986)): no reported side effects
reduction of viral activity [5]: ≥ 10^3
reduction of viral activity [6]: ≥ 10^3
reduction of viral activity [7]: ≥ 10^3
